Data on 13 compounds can be found in patent US11655216B2 (priority 2016, dated 2023).

The target of assay [1] is T1, glutathione-S-transferase (GST) tagged LXRbeta LBD (ligand binding domain) (Homo sapiens, UniProt P55055).
T1 construct: purchased Invitrogen pv4658
T1 sequence (P55055 222-460 limits assumed): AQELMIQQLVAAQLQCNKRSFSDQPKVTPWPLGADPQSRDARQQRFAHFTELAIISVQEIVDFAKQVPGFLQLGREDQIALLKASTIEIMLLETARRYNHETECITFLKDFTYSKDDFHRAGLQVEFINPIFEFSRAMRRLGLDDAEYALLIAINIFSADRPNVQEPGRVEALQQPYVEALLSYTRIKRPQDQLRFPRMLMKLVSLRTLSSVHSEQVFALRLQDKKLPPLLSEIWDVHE
The experiment in a line: LanthaScreen TR-FRET Liver X Receptor Coactivator Assay, LXR beta. The assay is classed as biochemical. The note with it: for EC50: LXR beta IP, potency (Inflection Point), compound-induced co-activator recruitment, TR-FRET; for Emax: read-out: LXR beta actiivty at max dose, efficacy (% Emax) in relation to reference dual agonist T0901317. An outline of the steps:
(§1)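 Compound + LBD (alpha or beta); add fluorescein coactivator peptide/Tb anti-GST Ab mix; incubate RT; read TR-FRET.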

Assay [2] deals with T2, glutathione-S-transferase (GST) tagged LXRalpha LBD (ligand binding domain) (Homo sapiens, UniProt Q13133).
T2 construct: purchased Invitrogen pv4655
T2 sequence (Q13133 209-447 limits assumed): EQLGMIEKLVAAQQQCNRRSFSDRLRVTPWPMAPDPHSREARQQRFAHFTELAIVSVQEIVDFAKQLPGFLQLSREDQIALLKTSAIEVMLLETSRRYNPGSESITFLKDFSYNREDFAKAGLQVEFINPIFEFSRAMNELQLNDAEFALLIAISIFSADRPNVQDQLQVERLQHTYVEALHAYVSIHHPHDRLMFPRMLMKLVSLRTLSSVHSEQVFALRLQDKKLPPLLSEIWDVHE
Briefly: biochemical. The settings on record: for EC50: LXR alpha IP; for EC50 / LXR alpha IP: potency (Inflection Point), compound-induced co-activator recruitment, TR-FRET. An outline of the steps: as §1

Where [3] appears, read: read-out: LXR alpha actiivty at max dose, efficacy (% Emax) in relation to reference dual agonist T0901317.

Read-outs that look alike come from different tables or passages of the source.

Broadly, the EC50 is the midpoint of the concentration-response curve. Read a low EC50 as a more potent agent. Take `CN(C)C(=O)c1ccc(OCC[C@@H]2C[C@@H]2C2CCN(C(=O)OCc3ccccc3)CC2)nc1Cl` (single isomer, unassigned) [Example 10-7, benzyl 4-((1R,2S or 1S,2R)-2-(2-(6-chloro-5-(dimethylcarbamoyl)pyridin-2-yloxy)ethyl)cyclopropyl) piperidine-1-carboxylate]: the EC50 in assay [1] was 49 nM; in assay [2], 861 nM. For the same compound, the Emax was 104% in assay [1] and 41% in assay [2] (setting [3]).
In the case of `COc1ccccc1[C@@](O)(C(=O)N1CCC2(CC1)C[C@@H]2CCCOc1ccc(C(=O)N(C)C)c(Cl)c1)C(F)(F)F` (single isomer, unassigned) [Example 14-5, 2-chloro-N,N-dimethyl-4-(3-((S or R)-6-((R or S)-3,3,3-trifluoro-2-hydroxy-2-(2-methoxyphenyl)propanoyl)-6-azaspiro[2.5]octan-1-yl)propoxy)benzamide], the EC50 in assay [1] stood at 10 nM; in assay [2], 231 nM. Besides, the Emax is 118% in assay [1] and 50% in assay [2] (setting [3]).
The corresponding values for `CN(C)C(=O)c1ccc(OCC2CC3(CCN(C(=O)C(O)(c4ccccc4)C(F)(F)F)CC3)C2)cc1Cl` (single isomer, unassigned) [Example 33-1, 2-chloro-N,N-dimethyl-4-((7-((R or S)-3,3,3-trifluoro-2-hydroxy-2-phenylpropanoyl)-7-azaspiro[3.5]nonan-2-yl)methoxy)benzamide] are 9 nM, 329 nM, 69% and 42%.
The like results for `CCNC(=O)c1ccc(OCCCCC2CCN(C(=O)[C@](O)(c3ccccc3)C(F)(F)F)CC2)cc1Cl` (single isomer, unassigned) [Example 8-10, (R or S)-2-chloro-N-ethyl-4-(4-(1-(3,3,3-trifluoro-2-hydroxy-2-phenylpropanoyl)piperidin-4-yl)butoxy) benzamide] were, in that order, 30 nM, 719 nM, 76% and 28%.
On to `CC(C)C(O)(C(=O)N1CCC(C2CC2COc2ccc(C(=O)N(C)C)c(Cl)c2)CC1)C(F)(F)F` (single isomer, unassigned) [Example 32-1, 2-chloro-4-(((1R,2S or 1S,2R)-2-(1-((S or R)-2-hydroxy-3-methyl-2-(trifluoromethyl)butanoyl)piperidin-4-yl)cyclopropyl)methoxy)-N,N-dimethylbenzamide], for which, in assay [1], a half-maximal response (EC50) required 319 nM and the Emax turned out to be 82%. The “LXR alpha actiivty at max dose” value in assay [2] (efficacy (% Emax) in relation to reference dual agonist T0901317) was found to be 0%. The “LXR alpha IP” value in assay [2] is “No IP”.
In the case of `CC(C)N(C)C(=O)c1ccc(OCCCCC2CCN(C(=O)[C@](O)(c3ccccc3)C(F)(F)F)CC2)cc1Cl` (single isomer, unassigned) [Example 8-17, (R or S)-2-chloro-N-isopropyl-N-methyl-4-(4-(1-(3,3,3-trifluoro-2-hydroxy-2-phenylpropanoyl)piperidin-4-yl)butoxy) benzamide], in assay [1], the 50% effective concentration (EC50) was determined as 17 nM and the Emax stood at 50%. In assay [2], the “LXR alpha IP” value is given as “No IP”. The Emax in assay [2] (setting [3]) is 10%.
The like results for `CCc1cccc([C@@](O)(C(=O)N2CCC(C[C@H]3C[C@@H](Oc4ccc(C(=O)N(C)C)c(Cl)c4)C3)CC2)C(F)(F)F)c1` (single isomer, unassigned) [Example 37-4, 2-chloro-4-((1R,3s)-3-((1-((R or S)-2-(3-ethylphenyl)-3,3,3-trifluoro-2-hydroxypropanoyl)piperidin-4-yl)methyl)cyclobutoxy)-N,N-dimethylbenzamide] were, in that order, 16 nM, 120%, “No IP” and 13%.
In the case of `CNC(=O)c1ccc(OC[C@H]2C[C@@H]2C2CCN(C(=O)[C@](O)(c3ccccc3)C(F)(F)C(F)(F)F)CC2)cc1Cl` (single isomer, unassigned) [Example 32-5, 2-chloro-N-methyl-4-(((1S,2R or 1R,2S)-2-(1-((R or S)-3,3,4,4,4-pentafluoro-2-hydroxy-2-phenylbutanoyl)piperidin-4-yl)cyclopropyl)methoxy) benzamide], the EC50 is 136 nM in assay [1] and 1540 nM in assay [2]. In addition, the figures for the Emax in assay [1] and in assay [2] (setting [3]) were 149% and 33%, respectively.
The like results for `COc1cccc([C@](O)(C(=O)N2CCC(CCCC(C)Oc3ccc(C(=O)N(C)C)c(Cl)c3)CC2)C(F)(F)F)c1` (single isomer, unassigned) [Example 25-2, 2-chloro-N,N-dimethyl-4-((R or S)-5-(1-((S or R)-3,3,3-trifluoro-2-hydroxy-2-(3-methoxyphenyl)propanoyl)piperidin-4-yl)pentan-2-yloxy)benzamide] were, in that order, 98 nM, 1360 nM, 84% and 12%.
The like results for `COc1cccc([C@@](O)(C(=O)N2CCC([C@H]3CC[C@@H](Oc4ccc(C(=O)N(C)C)c(Cl)c4)CC3)CC2)C(F)(F)F)c1` (single isomer, unassigned) [Example 38-1, 2-chloro-N,N-dimethyl-4-((1S,4s)-4-(1-((R or S)-3,3,3-trifluoro-2-hydroxy-2-(3-methoxyphenyl)propanoyl)piperidin-4-yl)cyclohexyloxy)benzamid] were, in that order, 3 nM, 49 nM, 89% and 44%.
For the compound `O=C(NCC(F)F)c1ccc(OCCCCC2CCN(C(=O)[C@](O)(c3ccccc3)C(F)(F)F)CC2)cc1Cl` (single isomer, unassigned) [Example 8-9, (R or S)-2-chloro-N-(2,2-difluoroethyl)-4-(4-(1-(3,3,3-trifluoro-2-hydroxy-2-phenylpropanoyl)piperidin-4-yl)butoxy) benzamide], the concentration for a half-maximal effect (EC50) is 94 nM in assay [1] and 856 nM in assay [2]. Also, the Emax is 82% in assay [1] and 34% in assay [2] (setting [3]).
On to `COc1cccc([C@](O)(C(=O)N2CCC(C[C@H]3C[C@@H](Oc4ccc(C(=O)N(C)C)c(Cl)c4)C3)CC2)C(F)F)c1` (single isomer, unassigned) [Example 37-7, 2-chloro-4-((1R,3s)-3-((1-((R or S)-3,3-difluoro-2-hydroxy-2-(3-methoxyphenyl)propanoyl)piperidin-4-yl)methyl)cyclobutoxy)-N,N-dimethylbenzamide], for which, in assay [1], the response was half-maximal at 32 nM (EC50) and the Emax amounted to 95%. The “LXR alpha IP” value in assay [2] was “No IP”. Moreover, in assay [2] (setting [3]), the Emax came out at 4%.
Regarding `COc1cccc([C@@](O)(C(=O)N2CCC(CC[C@H](C)COc3ccc(C(N)=O)c(Cl)c3)CC2)C(F)(F)F)c1` (single isomer, unassigned) [Example 24-1, 2-chloro-4-((R or S)-2-methyl-4-(1-((S or R)-3,3,3-trifluoro-2-hydroxy-2-(3-methoxyphenyl)propanoyl)piperidin-4-yl)butoxy)benzamide], in assay [1], the response was half-maximal at 33 nM (EC50) and the Emax was 54%. The Emax in assay [2] (efficacy (% Emax) in relation to reference dual agonist T0901317, read-out: LXR alpha actiivty at max dose) was determined as 14%. Further, the “LXR alpha IP” value in assay [2] is on record as “No IP”.
